“Also recorded” adds a separate entry of the source. Non-standard residues stand in square brackets, D forms with d. No end group written: not given here. *: point of attachment. Biotin = O=C1N[C@H]2[C@H](CS[C@H]2CCCCC(=O)*)N1; Lys(Me3) = C[N+](C)(C)CCCC[C@H](N)C(=O)O
How the values were obtained:
[1] = tested on: His6-JMJD6_1–362; settings: MALDI-TOF MS; His6-JMJD6_1–362 (10 μM), 2OG (500 μM); cited from earlier work
[2] = retention on SPE cartridges; format: physicochemical; settings: for retention on SPE cartridges: SR protein fragments, attributed to high basicity; for retention on SPE cartridge: C4 SPE cartridge
Text: (§1) The JMJD6-catalysed hydroxylation of the BRD-derived substrate peptide was monitored at ambient temperature by SPE-MS using a RapidFire RF 365 high-throughput sampling robot (Agilent) attached to an iFunnel Agilent 6550 accurate mass quadrupole time-of-flight (Q-TOF) mass spectrometer, which was operated in the positive ionization mode. Assay samples were aspirated under vacuum for 0.4 s, then loaded onto a C4 solid phase extraction (SPE) cartridge. After loading, the C4 SPE cartridge was washed with 0.1%v/v aqueous formic acid to remove non-volatile buffer salts (5 s, 1.5 mL min^−1). The peptide was eluted from the SPE cartridge with 0.1%v/v aqueous formic acid in 75/25v/v acetonitrile/water into the mass spectrometer (5 s, 1.6 mL min^−1) and the SPE cartridge re-equilibrated with 0.1%v/v aqueous formic acid (1 s, 1.25 mL min^−1).

[3] = tested on: KDM4C; set-up: method as in PMID 21859681; settings: KDM4C (0.5 μM); SPE-MS; cited from earlier work
[4] = biological target: T1, full-length His6-JMJD6 (Homo sapiens, UniProt Q6NYC1); test: SPE-MS kinetics of JMJD6-catalysed lysyl hydroxylation (2OG, Fe(II), LAA, BRD-derived peptides); format: biochemical; settings: for K m: read-out: Michaelis constant Km (K^app m); for turnover number kcat (k^app cat) / catalytic efficiency kcat/Km: pH 7.5; for turnover number kcat (k^app cat): calculated from v^app max assuming active JMJD6 = total enzyme; for substrate inhibition of JMJD6 catalysis: high substrate concentrations (>2 μM)
T1 construct: An enzyme mixture (10 μL) containing full-length His6-JMJD6 (5 μM; final concentration: 0.05 μM); made in house; host or cells: Escherichia coli BL21 (DE3), pET-28a(+) plasmid
Experimental: Recombinant human JMJD6 (full length with a N-terminal His6-tag) was produced in Escherichia coli BL21 (DE3) cells using a pET-28a(+) plasmid and purified by standard Ni(II)-affinity size-exclusion chromatography, as previously reported.[40] […] Purified JMJD6 was stored at −78 °C; fresh aliquots were used for all JMJD6 assays.
Peptides were used as 10 mM stock solutions in DMSO (Sigma-Aldrich; BioUltra grade).
Assay samples were aspirated under vacuum for 0.4 s, then loaded onto a C4 solid phase extraction (SPE) cartridge. After loading, the C4 SPE cartridge was washed with 0.1%v/v aqueous formic acid to remove non-volatile buffer salts (5 s, 1.5 mL min^−1). The peptide was eluted from the SPE cartridge with 0.1%v/v aqueous formic acid in 75/25v/v acetonitrile/water into the mass spectrometer (5 s, 1.6 mL min^−1) and the SPE cartridge re-equilibrated with 0.1%v/v aqueous formic acid (1 s, 1.25 mL min^−1).
Peaks corresponding to the m/z +5 charge states of the BRD-derived substrate peptide and the hydroxylated product peptides were extracted from the ion chromatogram and integrated using RapidFire Integrator 4.3.0 (Agilent). Peak area data were exported into Microsoft Excel and used to calculate the relative abundance of the mono-hydroxylated product peptide using the following equation: […]
The concentration of the mono-hydroxylated product peptide was calculated by multiplying the %-fraction of the mono-hydroxylated product peptide by the initial concentration of the substrate peptide employed in the assay. Initial reaction velocities were then calculated and fitted to a Michaelis–Menten plot using nonlinear regression (GraphPad Prism 5).

[5] = tested on: PHD2; set-up: method as in PMID 18952043; settings: PHD2 (1.0 nM); FRET assay; cited from earlier work
[6] = biological target: T1, full-length His6-JMJD6; test: SPE-MS time-course of JMJD6-catalysed hydroxylation of BRD-derived peptides; format: biochemical; settings: 0.05 μM JMJD6, 2 μM peptide, 2OG 200 μM, FAS 2 μM, LAA 100 μM, Tris 50 mM pH 7.5; for number of hydroxylation products observed (+16 Da mass shifts): initial time-course, n = 3; for hydroxylation by JMJD6 (in words): time-course, SPE-MS
Experimental: Fig. 2 JMJD6-catalysed hydroxylation of homologous 40 mer peptides derived from bromodomain-containing proteins BRD2, BRD3, and BRD4. (a)–(c) Red MS spectra: JMJD6-catalysed hydroxylation after 10 min of (a) BRD2_520–559, (b) BRD3_463–502, and (c) BRD4_511–550. Black MS spectra: no enzyme controls. (d)–(f) JMJD6-catalysed hydroxylation of (d) BRD2_520–559, (e) BRD3_463–502, and (f) BRD4_511–550 showing the relative abundance of the non-hydroxylated substrate (orange circles), mono-hydroxylated product (green squares), di-hydroxylated product (purple triangles) and tri-hydroxylated product (light blue diamonds) over time. Data are means of three independent runs (n = 3; means ± SD).
as §1
Peaks corresponding to the m/z +5 charge states of the BRD-derived substrate peptide and the hydroxylated product peptides were extracted from the ion chromatogram and integrated using RapidFire Integrator 4.3.0 (Agilent). Peak area data were exported into Microsoft Excel and used to calculate the relative abundance of the mono-hydroxylated product peptide using the following equation:
% of mono-hydroxylated product peptide = 100 × (integral of mono-hydroxylated product peptide)/(integral of non-hydroxylated substrate peptide + sum of integrals of all hydroxylated product peptides). Note that for the time-period used to calculate initial reaction velocities, negligible amounts of multi-hydroxylated product peptide were observed (<5%); therefore, the sum of integrals of all hydroxylated product peptides ≈ the integral of the mono-hydroxylated product peptide.

[7] = tested on: NO66_183–641; set-up: method as in PMID 34843649; settings: NO66_183–641 (0.3 μM); SPE-MS; cited from earlier work
[8] = BRD peptide substrate varied, 0.05 μM full-length His6-JMJD6, 2OG 200 μM, FAS 2 μM, LAA 100 μM, 50 mM Tris pH 7.5, ambient temperature, substrate inhibition fit, mean ± SD n = 3
[9] = BRD peptide substrate varied, 0.05 μM full-length His6-JMJD6, 2OG 200 μM, SPE-MS, n = 3

## SRSRSRDRKRRSRSRDR [U2AF65_30–46, reported JMJD6 substrate peptide from U2 small nuclear RNA auxiliary factor 2]
[1]
  K m: 78.0 ± 15.0 µM
  k cat: 0.009 s⁻¹
  k cat/Km: 120 M⁻¹ s⁻¹
[2]
  retention on SPE cartridges: poor retention on SPE cartridges

## RSKSPRRRRSHSR [SRSF11_286–298, reported JMJD6 substrate peptide from serine/arginine-rich splicing factor 11]
[1]
  K m: 41.0 ± 6.6 µM
  k cat: 0.008 s⁻¹
  k cat/Km: 200 M⁻¹ s⁻¹
[2]
  retention on SPE cartridges: poor retention on SPE cartridges

## RSKKRKKSKSRS [RBM39_31–42]
[1]
  K m: 56.0 ± 9.6 µM
  k cat: 0.028 s⁻¹
  k cat/Km: 400 M⁻¹ s⁻¹
[2]
  retention on SPE cartridges: poor retention on SPE cartridges

## ARTAQTAR[Lys(Me3)]STGGIA [a histone 3 K9(me3) derivative, KDM4C substrate]
[3]
  K m (substrate): 5.8 ± 0.7 µM
  k cat (substrate): 0.089 ± 0.004 s⁻¹
  k cat/Km (substrate): 15400 ± 1900 M⁻¹ s⁻¹

## O=C1O[C@H]([C@@H](O)CO)C(O)=C1O [LAA, L-ascorbic acid]
[4]; 50 nM JMJD6, 2OG 200 μM, FAS 2 μM, BRD4_511–550 2 μM, LAA varied, Tris pH 7.5, n = 3
  effect of LAA addition on JMJD6 catalysis: beneficial effect on JMJD6 catalysis; also recorded: not essential for productive JMJD6 catalysis; also recorded: significantly enhanced levels of JMJD6 catalysis

## Biotin-DLEMLAPYIPMDDDFQL [HIF-1α-derived PHD2 substrate]
[5]
  K m (substrate): 7.3 ± 1.3 µM

## NPKRSRSREHRR [LUC7L2_267–278, reported JMJD6 substrate peptide from Luc7-like 2]
[1]
  K m: 51.0 ± 4.6 µM
  k cat: 0.011 s⁻¹
  k cat/Km: 220 M⁻¹ s⁻¹
[2]
  retention on SPE cartridges: poor retention on SPE cartridges

## SRDHKRSRSRERRRS [CROP311–325, reported JMJD6 substrate peptide from cisplatin resistance-associated protein]
[1]
  K m: 71.0 ± 7.2 µM
  k cat: 0.019 s⁻¹
  k cat/Km: 270 M⁻¹ s⁻¹
[2]
  retention on SPE cartridges: poor retention on SPE cartridges

## LAELQEQLRAVHEQLAALSQGPISKPKRKREKKEKKKKRK [BRD2_520–559, 40-mer peptide fragment derived from human BRD2, JMJD6 substrate, prepared by SPPS]
[4]; [8]
  K m: 0.89 ± 0.33 µM
[4]; [9]
  turnover number kcat (k^app cat): 0.24 ± 0.05 s⁻¹
  catalytic efficiency kcat/Km: 270000 ± 110000 M⁻¹ s⁻¹
[4]
  substrate inhibition of JMJD6 catalysis: inhibit JMJD6 catalysis
[2]
  retention on SPE cartridge: efficiently retained on a C4 SPE cartridge
[6]
  number of hydroxylation products observed (+16 Da mass shifts): three
  hydroxylation by JMJD6 (in words): efficiently hydroxylated by isolated recombinant JMJD6; also recorded: multiple hydroxylations

## LAELQEQLKAVHEQLAALSQAPVNKPKKKKEKKEKEKKKK [BRD3_463–502, 40-mer peptide fragment derived from human BRD3, JMJD6 substrate, prepared by SPPS]
[4]; BRD peptide substrate varied, 0.05 μM full-length His6-JMJD6, 2OG 200 μM, FAS 2 μM, LAA 100 μM, 50 mM Tris pH 7.5, ambient temperature, mono-hydroxylation, substrate inhibition fit, mean ± SD n = 3
  apparent maximum velocity v^app max: 5.2 ± 1.3 nM/s
[4]; [8]
  K m: 1.2 ± 0.4 µM
[4]; [9]
  turnover number kcat (k^app cat): 0.10 ± 0.02 s⁻¹
  catalytic efficiency kcat/Km: 87000 ± 38000 M⁻¹ s⁻¹
[4]; SPE-MS, JMJD6 0.05 μM
  kcat/Km compared with BRD4_511–550 (fold less): ~2 fold
[4]
  substrate inhibition of JMJD6 catalysis: inhibit JMJD6 catalysis
[2]
  retention on SPE cartridge: efficiently retained on a C4 SPE cartridge
[6]
  number of hydroxylation products observed (+16 Da mass shifts): two
  hydroxylation by JMJD6 (in words): efficiently hydroxylated by isolated recombinant JMJD6; also recorded: multiple hydroxylations

## RPL8_205–224: NO66 substrate
[7]
  K m (substrate): 19.1 ± 6.3 µM

Source: PMC11878239, “Biochemical investigations using mass spectrometry to monitor JMJD6-catalysed hydroxylation of multi-lysine containing bromodomain-derived substrates” (RSC Chemical Biology, 2025)
